# Measured values from ChEMBL document CHEMBL3046577, “Stereocontrolled synthesis of spirosuccinimide derivative of (+)-hydantocidin” (1995).
# The source made the active and inactive calls. The calls are words filed in the database; no cut-off is given here.
# How the values were obtained:
# Assay type in all cases: functional
# Xanthium strumarium = assay: Herbicidal activity against Xanthium strumarium (cocklebur) at 1000 ppm relative to control
# Ambrosia artemisiifolia = assay: Herbicidal activity against Ambrosia artemisiifolia (ragweed) at 1000 ppm relative to control
# Eleusine indica = assay: Herbicidal activity against Eleusine indica at 1000 ppm relative to control
SMILES,Activity (Xanthium strumarium),Activity (Ambrosia artemisiifolia),Activity (Eleusine indica)
O=C1C[C@@]2(O[C@H](CO)[C@@H](O)[C@H]2O)C(=O)N1,90%,90%,70%
O=C1NC(=O)[C@@]2(N1)O[C@H](CO)[C@@H](O)[C@H]2O,Active,Active,Active
